Data on three compounds can be found in article PMC8231556, “Inhibiting Endothelial Cell Function in Normal and Tumor Angiogenesis Using BMP Type I Receptor Macrocyclic Kinase Inhibitors” (Cancers, 2021).

Holding throughout (assay): radiometric kinase profiling (33 PanQinase)
What all share (assay type): biochemical

In one experiment the target is T1, GSG2 (Homo sapiens, UniProt Q8TF76).
T1 construct: purchased ProQinase (33PanQinase Activity Assay)
T1 sequence (Q8TF76 1-798): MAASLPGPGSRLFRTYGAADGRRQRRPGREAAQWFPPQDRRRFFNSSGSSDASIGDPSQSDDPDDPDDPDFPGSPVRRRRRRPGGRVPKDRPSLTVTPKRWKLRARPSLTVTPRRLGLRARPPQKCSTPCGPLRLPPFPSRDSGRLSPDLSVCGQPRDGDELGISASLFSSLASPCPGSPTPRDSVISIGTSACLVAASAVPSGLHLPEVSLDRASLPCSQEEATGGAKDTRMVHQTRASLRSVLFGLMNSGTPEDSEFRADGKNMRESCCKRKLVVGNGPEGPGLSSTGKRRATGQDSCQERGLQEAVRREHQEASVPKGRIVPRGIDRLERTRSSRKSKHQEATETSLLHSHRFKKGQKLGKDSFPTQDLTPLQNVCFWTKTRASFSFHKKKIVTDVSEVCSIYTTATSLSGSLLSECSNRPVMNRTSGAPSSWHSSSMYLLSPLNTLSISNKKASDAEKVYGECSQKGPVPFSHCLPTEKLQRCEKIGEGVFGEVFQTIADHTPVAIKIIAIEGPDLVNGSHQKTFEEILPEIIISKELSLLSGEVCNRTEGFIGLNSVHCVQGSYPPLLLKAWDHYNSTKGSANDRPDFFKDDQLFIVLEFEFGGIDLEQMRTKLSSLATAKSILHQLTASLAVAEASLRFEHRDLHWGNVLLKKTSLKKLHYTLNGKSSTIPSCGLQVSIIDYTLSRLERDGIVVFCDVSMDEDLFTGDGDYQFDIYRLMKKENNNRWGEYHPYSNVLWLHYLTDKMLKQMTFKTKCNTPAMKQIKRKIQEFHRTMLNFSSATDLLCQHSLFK
To be noted: read-out: Inhibitory effect (%) GSG2. The essentials: (§1)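 Enzyme/substrate mixes were incubated with [γ-33P]-ATP and compound (added as a 0.1 μM solution in 10% DMSO) at 30 °C for 60 min, then stopped with H3PO4 and washed with NaCl. 33P incorporation was scintillation-counted, and residual activity (%) was normalized to untreated control and background.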

For the next experiment, the target named is T2, AKT1 (Homo sapiens, UniProt P31749).
T2 construct: purchased Proqinase, Germany
To be noted: read-out: Inhibitory effect (%) AKT1. The essentials:
as §1

A further experiment concerns the target T3, CSNK1G2 (Homo sapiens, UniProt P78368).
T3 construct: purchased Proqinase, Germany
To be noted: read-out: Inhibitory effect (%) CSNK1G2. In a few lines: as §1

In a further experiment the target is T4, FER (Homo sapiens, UniProt P16591).
T4 construct: purchased ProQinase (33PanQinase Activity Assay)
To be noted: read-out: Inhibitory effect (%) FER. The essentials: as §1

The next experiment addresses T5, ROCK2 (Homo sapiens, UniProt O75116).
T5 construct: purchased ProQinase (33PanQinase Activity Assay)
To be noted: read-out: Inhibitory effect (%) ROCK2. The essentials:
as §1

In a further experiment the target is T6, DAPK1 (Homo sapiens, UniProt P53355).
T6 construct: purchased Proqinase, Germany
The following applies: read-out: Inhibitory effect (%) DAPK1. The essentials: as §1

Another experiment has as its target T7, SGK3 (Homo sapiens, UniProt Q96BR1).
T7 construct: purchased ProQinase (33PanQinase Activity Assay)
T7 sequence (Q96BR1 1-496): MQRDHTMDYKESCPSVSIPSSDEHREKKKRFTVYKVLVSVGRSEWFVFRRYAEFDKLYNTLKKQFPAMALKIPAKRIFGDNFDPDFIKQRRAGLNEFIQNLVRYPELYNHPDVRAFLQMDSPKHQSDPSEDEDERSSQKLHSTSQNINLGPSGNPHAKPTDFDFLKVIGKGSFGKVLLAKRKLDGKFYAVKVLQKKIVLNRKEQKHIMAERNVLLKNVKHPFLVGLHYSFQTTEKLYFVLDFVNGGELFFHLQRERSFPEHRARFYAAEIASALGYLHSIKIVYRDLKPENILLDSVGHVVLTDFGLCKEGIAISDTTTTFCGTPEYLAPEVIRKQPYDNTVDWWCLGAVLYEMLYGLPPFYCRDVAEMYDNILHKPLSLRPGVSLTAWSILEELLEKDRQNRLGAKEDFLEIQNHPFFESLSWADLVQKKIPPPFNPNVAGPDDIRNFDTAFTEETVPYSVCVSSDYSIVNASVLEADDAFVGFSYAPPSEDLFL
To be noted: read-out: Inhibitory effect (%) SGK3. The essentials:
as §1

In a further experiment the target is T8, SRPK1 (Homo sapiens, UniProt Q96SB4).
T8 construct: purchased ProQinase (33PanQinase Activity Assay)
The following applies: read-out: Inhibitory effect (%) SRPK1. The essentials: as §1

In another experiment the target is T9, SLK (Homo sapiens, UniProt Q9H2G2).
T9 construct: purchased ProQinase (33PanQinase Activity Assay)
The following applies: read-out: Inhibitory effect (%) SLK. In a few lines:
as §1

A further experiment deals with T10, PHKG2 (Homo sapiens, UniProt P15735).
T10 construct: purchased ProQinase (33PanQinase Activity Assay)
T10 sequence (P15735 1-406): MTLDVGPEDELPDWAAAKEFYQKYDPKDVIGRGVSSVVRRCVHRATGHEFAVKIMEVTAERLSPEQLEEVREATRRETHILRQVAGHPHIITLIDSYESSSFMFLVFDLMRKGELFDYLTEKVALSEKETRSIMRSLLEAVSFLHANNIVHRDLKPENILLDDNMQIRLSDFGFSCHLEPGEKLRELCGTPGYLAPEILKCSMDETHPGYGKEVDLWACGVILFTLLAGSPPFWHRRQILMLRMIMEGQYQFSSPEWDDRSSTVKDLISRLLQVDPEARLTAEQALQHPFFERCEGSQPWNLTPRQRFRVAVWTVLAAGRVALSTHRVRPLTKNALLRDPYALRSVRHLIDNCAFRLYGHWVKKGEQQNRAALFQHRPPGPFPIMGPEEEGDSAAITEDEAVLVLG
The following applies: read-out: Inhibitory effect (%) PHKG2. The essentials: as §1

T2 sequence (P31749 whole entry): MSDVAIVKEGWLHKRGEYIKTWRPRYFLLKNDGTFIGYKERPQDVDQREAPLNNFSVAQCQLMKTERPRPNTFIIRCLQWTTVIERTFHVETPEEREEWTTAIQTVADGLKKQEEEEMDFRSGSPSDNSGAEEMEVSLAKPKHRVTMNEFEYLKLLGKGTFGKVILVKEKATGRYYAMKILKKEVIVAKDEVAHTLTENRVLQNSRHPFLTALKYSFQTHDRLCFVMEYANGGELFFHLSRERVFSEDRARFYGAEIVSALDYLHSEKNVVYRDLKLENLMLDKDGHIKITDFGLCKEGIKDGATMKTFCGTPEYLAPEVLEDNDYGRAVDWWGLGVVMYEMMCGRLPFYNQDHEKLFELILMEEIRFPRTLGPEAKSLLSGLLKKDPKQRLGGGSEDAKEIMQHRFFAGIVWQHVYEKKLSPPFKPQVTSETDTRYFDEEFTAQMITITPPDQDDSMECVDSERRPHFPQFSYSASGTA
T5 sequence (O75116 whole entry): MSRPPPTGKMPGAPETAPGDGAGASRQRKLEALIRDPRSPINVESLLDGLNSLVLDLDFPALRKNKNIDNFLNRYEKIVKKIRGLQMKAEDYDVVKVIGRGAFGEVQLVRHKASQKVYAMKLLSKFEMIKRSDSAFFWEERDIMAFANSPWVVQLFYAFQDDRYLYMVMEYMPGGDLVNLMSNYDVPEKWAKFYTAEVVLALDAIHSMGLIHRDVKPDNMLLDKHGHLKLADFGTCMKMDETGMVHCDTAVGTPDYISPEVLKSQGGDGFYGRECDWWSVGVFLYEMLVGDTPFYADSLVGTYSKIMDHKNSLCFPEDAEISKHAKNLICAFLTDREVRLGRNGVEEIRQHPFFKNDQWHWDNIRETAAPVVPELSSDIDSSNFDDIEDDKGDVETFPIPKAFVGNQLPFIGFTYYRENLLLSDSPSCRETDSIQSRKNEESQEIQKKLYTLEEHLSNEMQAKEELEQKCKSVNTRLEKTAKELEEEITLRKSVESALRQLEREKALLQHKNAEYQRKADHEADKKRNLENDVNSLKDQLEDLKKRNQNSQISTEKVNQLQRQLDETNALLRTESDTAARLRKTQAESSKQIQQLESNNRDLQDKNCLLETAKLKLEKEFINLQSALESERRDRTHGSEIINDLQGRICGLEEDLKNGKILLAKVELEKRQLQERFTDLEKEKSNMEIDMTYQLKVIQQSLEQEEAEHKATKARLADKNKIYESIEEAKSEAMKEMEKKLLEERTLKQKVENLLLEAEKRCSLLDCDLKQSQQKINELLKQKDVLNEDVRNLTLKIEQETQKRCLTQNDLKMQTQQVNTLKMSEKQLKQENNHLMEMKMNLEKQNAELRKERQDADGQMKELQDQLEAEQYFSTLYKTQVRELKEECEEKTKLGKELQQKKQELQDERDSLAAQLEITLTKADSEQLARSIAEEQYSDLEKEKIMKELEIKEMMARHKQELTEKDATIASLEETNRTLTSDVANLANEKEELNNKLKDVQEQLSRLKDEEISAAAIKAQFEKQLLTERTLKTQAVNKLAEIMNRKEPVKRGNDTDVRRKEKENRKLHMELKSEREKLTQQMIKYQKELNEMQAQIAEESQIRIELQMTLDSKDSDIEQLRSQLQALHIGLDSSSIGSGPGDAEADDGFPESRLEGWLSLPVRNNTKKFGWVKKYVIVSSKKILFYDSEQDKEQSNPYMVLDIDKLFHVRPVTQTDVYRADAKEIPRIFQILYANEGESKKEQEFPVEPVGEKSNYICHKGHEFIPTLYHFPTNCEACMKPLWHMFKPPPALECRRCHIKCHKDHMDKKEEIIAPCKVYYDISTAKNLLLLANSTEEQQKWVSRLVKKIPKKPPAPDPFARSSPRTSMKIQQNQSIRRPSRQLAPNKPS
T4 sequence (P16591 whole entry): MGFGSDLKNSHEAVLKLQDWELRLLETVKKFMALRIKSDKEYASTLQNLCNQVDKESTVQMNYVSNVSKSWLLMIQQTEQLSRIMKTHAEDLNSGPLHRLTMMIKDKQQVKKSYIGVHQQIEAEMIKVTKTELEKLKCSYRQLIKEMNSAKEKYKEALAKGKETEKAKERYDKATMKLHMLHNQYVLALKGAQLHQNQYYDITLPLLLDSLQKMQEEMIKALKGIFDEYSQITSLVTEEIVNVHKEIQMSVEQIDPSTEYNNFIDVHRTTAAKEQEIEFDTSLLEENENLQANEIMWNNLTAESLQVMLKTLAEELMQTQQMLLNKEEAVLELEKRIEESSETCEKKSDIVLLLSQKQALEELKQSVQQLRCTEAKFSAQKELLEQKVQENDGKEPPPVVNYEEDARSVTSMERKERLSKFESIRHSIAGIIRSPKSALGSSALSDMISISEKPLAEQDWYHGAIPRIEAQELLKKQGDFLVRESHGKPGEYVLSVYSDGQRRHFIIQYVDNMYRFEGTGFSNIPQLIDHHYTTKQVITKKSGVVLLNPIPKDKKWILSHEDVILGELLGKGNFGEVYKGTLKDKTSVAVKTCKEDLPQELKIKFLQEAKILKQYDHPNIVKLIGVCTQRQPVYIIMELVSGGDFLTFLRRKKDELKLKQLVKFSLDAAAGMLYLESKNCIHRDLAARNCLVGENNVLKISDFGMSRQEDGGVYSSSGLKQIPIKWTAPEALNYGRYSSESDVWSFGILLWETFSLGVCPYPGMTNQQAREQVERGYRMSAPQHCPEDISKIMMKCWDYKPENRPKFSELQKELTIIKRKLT
T9 sequence (Q9H2G2 whole entry): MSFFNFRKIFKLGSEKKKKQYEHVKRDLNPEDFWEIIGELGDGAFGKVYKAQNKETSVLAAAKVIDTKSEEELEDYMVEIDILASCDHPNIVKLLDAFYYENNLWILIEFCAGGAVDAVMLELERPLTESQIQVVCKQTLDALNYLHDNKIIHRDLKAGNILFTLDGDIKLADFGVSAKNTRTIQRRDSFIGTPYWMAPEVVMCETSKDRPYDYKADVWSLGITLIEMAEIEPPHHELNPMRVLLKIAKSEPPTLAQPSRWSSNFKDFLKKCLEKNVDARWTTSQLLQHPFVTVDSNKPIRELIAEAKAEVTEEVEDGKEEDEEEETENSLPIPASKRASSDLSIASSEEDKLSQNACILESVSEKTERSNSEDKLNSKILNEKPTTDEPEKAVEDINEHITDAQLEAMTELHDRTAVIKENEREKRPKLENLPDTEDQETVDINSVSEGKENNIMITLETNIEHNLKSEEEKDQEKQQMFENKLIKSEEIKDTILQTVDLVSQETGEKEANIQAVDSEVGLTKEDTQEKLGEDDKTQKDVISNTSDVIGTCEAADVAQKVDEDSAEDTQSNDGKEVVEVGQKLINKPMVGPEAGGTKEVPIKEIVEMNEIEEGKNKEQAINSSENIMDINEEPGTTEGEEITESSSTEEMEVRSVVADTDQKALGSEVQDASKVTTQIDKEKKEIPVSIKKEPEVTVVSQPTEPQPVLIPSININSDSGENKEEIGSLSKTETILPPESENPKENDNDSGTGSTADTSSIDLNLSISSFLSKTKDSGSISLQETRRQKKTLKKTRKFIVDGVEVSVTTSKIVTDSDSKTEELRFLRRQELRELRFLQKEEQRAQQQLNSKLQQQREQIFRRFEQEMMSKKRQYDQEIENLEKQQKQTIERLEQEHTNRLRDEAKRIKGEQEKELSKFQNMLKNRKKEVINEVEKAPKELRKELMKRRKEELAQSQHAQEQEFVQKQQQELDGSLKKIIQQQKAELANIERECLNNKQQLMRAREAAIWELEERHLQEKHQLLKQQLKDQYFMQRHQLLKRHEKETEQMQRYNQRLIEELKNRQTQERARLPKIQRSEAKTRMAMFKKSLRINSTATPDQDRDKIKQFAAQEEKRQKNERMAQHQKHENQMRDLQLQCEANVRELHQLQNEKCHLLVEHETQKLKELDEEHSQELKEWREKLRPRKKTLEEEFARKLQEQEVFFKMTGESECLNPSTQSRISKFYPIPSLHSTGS
T3 sequence (P78368 whole entry): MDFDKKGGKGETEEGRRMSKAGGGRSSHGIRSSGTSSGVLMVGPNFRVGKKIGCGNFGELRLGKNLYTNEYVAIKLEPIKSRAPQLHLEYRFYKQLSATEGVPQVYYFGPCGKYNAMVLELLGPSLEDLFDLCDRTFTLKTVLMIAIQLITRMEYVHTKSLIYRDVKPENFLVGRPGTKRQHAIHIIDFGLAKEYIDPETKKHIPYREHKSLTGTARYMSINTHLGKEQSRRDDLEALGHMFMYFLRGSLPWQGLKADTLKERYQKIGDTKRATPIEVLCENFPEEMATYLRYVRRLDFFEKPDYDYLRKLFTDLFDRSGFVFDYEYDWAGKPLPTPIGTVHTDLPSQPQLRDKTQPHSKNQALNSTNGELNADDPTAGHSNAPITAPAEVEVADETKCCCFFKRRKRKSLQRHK
T8 sequence (Q96SB4 whole entry): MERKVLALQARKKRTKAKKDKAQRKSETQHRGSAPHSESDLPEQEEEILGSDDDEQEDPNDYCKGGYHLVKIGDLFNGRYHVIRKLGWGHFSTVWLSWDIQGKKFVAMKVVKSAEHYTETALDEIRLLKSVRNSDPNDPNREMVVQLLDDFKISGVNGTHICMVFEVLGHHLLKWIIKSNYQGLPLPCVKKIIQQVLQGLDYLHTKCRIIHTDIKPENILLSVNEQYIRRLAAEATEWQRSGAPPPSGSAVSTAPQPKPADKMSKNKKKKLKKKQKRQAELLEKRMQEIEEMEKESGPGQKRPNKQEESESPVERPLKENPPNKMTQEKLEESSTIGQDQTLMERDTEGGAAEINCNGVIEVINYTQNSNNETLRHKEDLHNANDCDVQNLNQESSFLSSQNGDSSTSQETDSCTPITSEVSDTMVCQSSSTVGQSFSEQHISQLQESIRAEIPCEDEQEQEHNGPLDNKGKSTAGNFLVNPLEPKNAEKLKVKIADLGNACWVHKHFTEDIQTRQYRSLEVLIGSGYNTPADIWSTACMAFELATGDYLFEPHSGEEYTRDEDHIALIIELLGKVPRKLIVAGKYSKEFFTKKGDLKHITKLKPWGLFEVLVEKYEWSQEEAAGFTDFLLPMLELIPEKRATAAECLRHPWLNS

With `c1ccc2c(-c3cnn4cc(-c5ccc(N6CCNCC6)cc5)cnc34)ccnc2c1` [LDN-193189, reference compound], the inhibition at 0.1 µM was -5.75% on GSG2; 16.1% at AKT1; -23.1% on CSNK1G2; 14.4% at FER; 13.1% on ROCK2; 11.3% at DAPK1. Also, the inhibition at 0.1 µM at SGK3 was -26.9%; on SRPK1, -16.5%; on SLK, -18.4%; at PHKG2, -23.6%.
Take `CN1CCc2cccc(c2)Nc2nccc(n2)N2CCCc3cc(ccc32)C1` [OD16]: the inhibition at 0.1 µM at GSG2 is 6.26%; at AKT1, -4.07%; on CSNK1G2, -15.6%; on FER, -18.9%; on ROCK2, 42.6%; at DAPK1, -6.59%. For the same compound, the inhibition at 0.1 µM on SGK3 was 2.44%; at SRPK1, -24.9%; on SLK it was 26.5%; at PHKG2, 1.87%.
In the case of `CN1CCC(=O)NCCNc2ccn3ncc(c3n2)-c2cccc(c2)C1` [OD29], the inhibition at 0.1 µM at GSG2 was 34.6%; on AKT1, -2.83%; on CSNK1G2, -0.5%; on FER, -7.91%; at ROCK2 it was -0.26%; on DAPK1, -3.89%. Moreover, the inhibition at 0.1 µM at SGK3 is -21.9%; on SRPK1 it was 21.5%; at SLK, 27.7%; on PHKG2, -1.93%.
